From article PMC10489644, “In Vitro Evaluation of the Potential for Drug Interactions by Salidroside” (Nutrients, 2023)
Read-outs that look alike come from different tables or passages of the source.

Tests used:
[1] = system: CYP1A2; test: in vitro; conditions: human; for Mean Fold Induction: 48 h
Description: (§1) The incubation solution was aspirated and replaced with incubation solution containing the same concentrations of salidroside, vehicle, or positive inducers for an additional 24 h. The total treatment period was 48 h. After the treatment period of 48 h, the incubation solution was aspirated. Hepatocytes were washed twice with pre-warmed HBSS containing 10 mM HEPES (HBSS I) and then the remaining solution was aspirated. Hepatocytes were washed once with pre-warmed HBSS I and incubated with 140 μL of RLT (lysis buffer from RNeasy 96 Kit) supplemented with 1% β-mercaptoethanol. Plates were then stored at −70 °C in a freezer until RNA analysis. Before RNA extraction, the frozen plate was thawed, and cell lysates were transferred to 96-well plates. RNA isolation was performed using a QIAcube RNA extraction system. Reverse transcription was performed to obtain cDNA. Quantification of the selective genes by real-time quantitative polymerase chain reaction (qPCR) was performed with TaqMan universal PCR Master Mix on the Bio-rad CFX384 TouchTM Real-Time PCR System. The relative change in the mRNA level of the selected target genes induced by each test compound was expressed in relation to the vehicle control sample, and fold changes in gene expression were determined by the ΔΔCt method.

[2] = in vitro; conditions: Sprague-Dawley (SD), rat, plasma, pH 7.4
Description: The experiment was performed using equilibrium dialysis with the two compartments separated by a semi-permeable membrane. Phosphate-buffered saline (PBS) (pH 7.4) was added to one side of the membrane and the plasma solution to the other side. After equilibration (5 h at 37 °C), samples were taken from both sides of the membrane, transferred to a new plate, and were matrix-matched by the addition of an appropriate amount of PBS to the plasma samples and blank plasma to the PBS samples. […] Incubations were performed in duplicate. Warfarin served as a control. The fraction unbound in plasma (fu,p) = Cb/Cp, where Cb represents the concentration in buffer and Cp the concentration in plasma at 5 h.

[3] = target: T1, CYP2B6 (Homo sapiens, UniProt P20813); conditions: microsomes
T1 sequence (P20813 1-491): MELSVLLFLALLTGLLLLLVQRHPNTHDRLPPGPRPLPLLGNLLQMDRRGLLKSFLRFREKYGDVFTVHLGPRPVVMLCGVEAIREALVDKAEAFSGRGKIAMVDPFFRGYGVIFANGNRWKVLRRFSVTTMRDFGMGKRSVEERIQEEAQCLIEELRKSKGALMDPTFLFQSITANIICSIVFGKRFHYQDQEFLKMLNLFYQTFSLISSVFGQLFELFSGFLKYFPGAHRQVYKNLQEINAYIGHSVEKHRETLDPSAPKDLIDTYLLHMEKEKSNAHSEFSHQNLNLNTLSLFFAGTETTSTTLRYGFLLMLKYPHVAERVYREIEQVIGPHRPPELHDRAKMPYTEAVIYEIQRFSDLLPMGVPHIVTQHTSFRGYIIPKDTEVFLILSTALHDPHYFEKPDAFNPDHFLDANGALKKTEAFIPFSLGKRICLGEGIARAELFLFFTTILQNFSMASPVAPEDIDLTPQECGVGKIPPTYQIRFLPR
Description: (§2) Incubation without 30 min pre-incubation, 178.5 µL of liver microsomes working was pre-incubated in a 37 °C water bath for 30 min. After the pre-incubation, 1.5 μL of test compound or control compound working solution, 60 μL of substrate working solution, and 60 μL of NADPH working solution were added; then, the reaction mixture was mixed by pipetting up and down and then incubated at 37 °C for 10 min. Incubation with 30 min pre-incubation. Next, 1.5 μL of test compound or control compound working solutions and 60 μL of NADPH working solution were added into 178.5 μL of liver microsome working solution, then the reaction mixture was mixed by pipetting up and down and then pre-incubated at 37 °C for 30 min. […]
(§3) For competitive and time-dependent CYP inhibition, the peak area ratios (PAR) of analyte/internal standard were used to semi-quantitatively determine the concentration of acetaminophen (CYP1A2 activity), 4’-hydroxydiclofenac (CYP2C9), 4’-hydroxymephenytoin (CYP2C19), dextrorphan (CYP2D6), 1’-hydroxymidazolam (CYP3A4), 6β-hydroxytestosterone (CYP3A4), hydroxybupropion (CYP2B6), and N-desethylamodiaquine (CYP2C8), with terfenadine as the internal standard by LC-MS/MS method. The HPLC-MS system utilized an Acquity UPLC system and Sciex API 4000 mass spectrometer in ESI positive mode, with quantitation employing MRM. […]

[4] = target: T2, CYP2C9 (Homo sapiens, UniProt P11712); test: Time-dependent inhibition (IC50 shift) in human liver microsomes
Description: as §2, §3

[5] = target: T2, CYP2C9; conditions: microsomes
Description: as §2, §3

[6] = system: CYP3A4/5; test: in vitro; conditions: human, microsomes
Description: as §2, §3

[7] = parameters: method as in PMID 35684130; conditions: multiple oral dose rat study; cited from earlier work
[8] = system: CYP3A4/5; test: in vitro; conditions: human, microsomes; remark: listed apart in the source
Description: Test compound/controls working solution or DMSO were added in 238.5 µL of liver microsomes working solution, mixed well by pipetting several times and pre-incubated in a 37 °C shaking water bath for 5 min. Following the pre-incubation, 60 µL of NADPH working solution were added, mixed well by pipetting several times, and incubated in a 37 °C shaking water bath for 10 min. Following the incubation, 300 µL of quenching solution were immediately added and vortexed for ~20 s to mix. All samples were centrifuged at 4000 rpm for 15 min at 4 °C and then the supernatant was transferred for LC-MS/MS analysis. IC50 values were determined by the Hill slope equation using Graph Pad Prism.
For competitive and time-dependent CYP inhibition, the peak area ratios (PAR) of analyte/internal standard were used to semi-quantitatively determine the concentration of acetaminophen (CYP1A2 activity), 4’-hydroxydiclofenac (CYP2C9), 4’-hydroxymephenytoin (CYP2C19), dextrorphan (CYP2D6), 1’-hydroxymidazolam (CYP3A4), 6β-hydroxytestosterone (CYP3A4), hydroxybupropion (CYP2B6), and N-desethylamodiaquine (CYP2C8), with terfenadine as the internal standard by LC-MS/MS method. The HPLC-MS system utilized an Acquity UPLC system and Sciex API 4000 mass spectrometer in ESI positive mode, with quantitation employing MRM. Samples were injected onto an Atlantis T3 5 μM column (2.1 x 50 mm). […]

[9] = system: CYP2B6; test: in vitro; conditions: human; for Mean Fold Induction: 48 h
Description: as §1, with “The sandwich medium was removed, and the hepatocytes were treated with incubation solutions containing salidroside (1, 5, 10, and 30 µM), vehicle (0.1% DMSO), or positive inducers in triplicate for 24 h after the cultures were established. The incubation” for “The incubation”

[10] = system: CYP3A4; conditions: for % of Positive Control / Mean Fold Induction: human, 48 h

T2 sequence (P11712 whole entry): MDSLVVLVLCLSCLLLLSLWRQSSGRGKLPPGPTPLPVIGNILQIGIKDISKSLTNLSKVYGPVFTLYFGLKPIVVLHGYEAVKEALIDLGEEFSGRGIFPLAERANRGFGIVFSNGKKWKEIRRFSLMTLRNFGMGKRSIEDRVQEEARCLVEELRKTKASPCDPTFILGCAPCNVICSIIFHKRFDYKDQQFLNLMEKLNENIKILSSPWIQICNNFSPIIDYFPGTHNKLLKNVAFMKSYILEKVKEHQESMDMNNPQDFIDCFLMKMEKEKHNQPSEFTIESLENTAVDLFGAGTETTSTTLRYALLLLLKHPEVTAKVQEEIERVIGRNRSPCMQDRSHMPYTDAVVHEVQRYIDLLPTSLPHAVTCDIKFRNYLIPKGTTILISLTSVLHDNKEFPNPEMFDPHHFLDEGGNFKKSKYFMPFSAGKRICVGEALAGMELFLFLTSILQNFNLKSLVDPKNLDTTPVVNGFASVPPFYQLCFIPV

Question: For `OC[C@H]1O[C@@H](OCCc2ccc(O)cc2)[C@H](O)[C@@H](O)[C@@H]1O` [Salidroside], which “Mean Fold Induction” value ([1]; 1 µM) is on record?
Answer: 1.3 fold

Question: What about the “Mean Fold Induction” value ([1]; 3 µM) of the same compound?
Answer: 1.0 fold

Question: And the “Mean Fold Induction” value ([1]; 10 µM)?
Answer: 1.1 fold

Question: What about the “Mean Fold Induction” value ([1]; 30 µM) of the same compound?
Answer: 1.2 fold

Question: And the fold induction at 48 h, 1 µM ([1]; Mean Fold Induction)?
Answer: 0.9

Question: And the fold induction at 48 h, 3 µM ([1]; Mean Fold Induction)?
Answer: 0.9

Question: And the fold induction at 48 h, 10 µM ([1]; Mean Fold Induction)?
Answer: 0.9

Question: And the fold induction at 48 h, 30 µM ([1]; Mean Fold Induction)?
Answer: 0.8

Question: And the fraction unbound at 5 h, 5 µM [2]?
Answer: 0.856

Question: What about the “IC50 Shift” value [3] of the same compound?
Answer: no shift

Question: And the IC50 [4]?
Answer: > 50 µM

Question: And the “IC50 Shift” value [5]?
Answer: no shift

Question: What about the IC50 at 10 min [6] of the same compound?
Answer: > 50 µM

Question: What about the “no observed adverse effect level (NOAEL)” value [7] of the same compound?
Answer: ≥ 2000 mg/kg/day

Question: And the IC50 at 10 min [8]?
Answer: > 50 µM

Question: And the “Mean Fold Induction” value ([9]; 1 µM)?
Answer: 0.6 fold

Question: And the “Mean Fold Induction” value ([9]; 10 µM)?
Answer: 1.1 fold

Question: And the fold induction at 48 h, 1 µM ([9]; Mean Fold Induction)?
Answer: 0.9

Question: And the fold induction at 48 h, 3 µM ([9]; Mean Fold Induction)?
Answer: 1.2

Question: What about the fold induction at 48 h, 10 µM ([9]; Mean Fold Induction) of the same compound?
Answer: 0.8

Question: And the “Mean Enzyme Activity” value ([10]; CYP3A4, Lot# SNP, 0.1 µM, N = 3)?
Answer: 1.82 pmol/10^6 cells/min

Question: What about the “% of Positive Control” value ([10]; 0.1 µM) of the same compound?
Answer: −15%

Question: What about the “Mean Fold Induction” value ([10]; 0.1 µM) of the same compound?
Answer: 2.07 fold

Question: And the “% of Positive Control” value ([10]; 1 µM)?
Answer: −26%

Question: And the “Mean Fold Induction” value ([10]; 1 µM)?
Answer: 1.55 fold

Question: What about the “% of Positive Control” value ([10]; 10 µM) of the same compound?
Answer: −14%

Question: And the “Mean Fold Induction” value ([10]; 10 µM)?
Answer: 2.13 fold
